Experimental data published in ChEMBL document CHEMBL1137819, “New 9-thiocyanatopupukeanane sesquiterpenes from the nudibranch Phyllidia varicosa and its sponge-prey Axinyssa aculeata” (J Nat Prod, 2003).
Values joined by “and” are separate entries in the source; they are usually repeats but may differ in a detail not shown here. Equal values may be shown once. Active and inactive are the calls of the source. No cut-off for these calls is given here.

Assays:
[1] = tested on: Artemia salina; assay: Toxicity against Artemia salina assessed as mortality after 24 hrs; assay type: organism-based; settings: in vivo
[2] = tested on: Bacillus subtilis; assay: Antimicrobial activity against Bacillus subtilis after 24 hrs; assay type: functional, organism-based
[3] = tested on: Candida albicans; assay: Antimicrobial activity against Candida albicans after 24 hrs; assay type: functional, organism-based

Q: What does the source list for `CC(C)[C@@H]1C[C@]2(C)C[C@]3(C)C[C@H]1[C@H]2C[C@@H]3SC#N.CC(C)[C@@H]1C[C@]2(C)C[C@]3(C)C[C@H]1[C@H]2C[C@H]3SC#N`?
A: Activity [1]: 90% and 35%; LD50 [1]: 5 ppm; Activity [2]: inactive; Activity [3]: Active
